# Test results taken from patent US11365199B2, “Pyrazole compounds as modulators of FSHR and uses thereof” (Merck Patent GmbH, priority 2013, dated 2022).
# Biological target: T1, FSHR (Homo sapiens, UniProt P23945)
# T1 construct: expressed in transfected cells; host or cells: CHO (Cho-FSHR-LUC-1-1-43)
# T1 sequence (P23945 18-695): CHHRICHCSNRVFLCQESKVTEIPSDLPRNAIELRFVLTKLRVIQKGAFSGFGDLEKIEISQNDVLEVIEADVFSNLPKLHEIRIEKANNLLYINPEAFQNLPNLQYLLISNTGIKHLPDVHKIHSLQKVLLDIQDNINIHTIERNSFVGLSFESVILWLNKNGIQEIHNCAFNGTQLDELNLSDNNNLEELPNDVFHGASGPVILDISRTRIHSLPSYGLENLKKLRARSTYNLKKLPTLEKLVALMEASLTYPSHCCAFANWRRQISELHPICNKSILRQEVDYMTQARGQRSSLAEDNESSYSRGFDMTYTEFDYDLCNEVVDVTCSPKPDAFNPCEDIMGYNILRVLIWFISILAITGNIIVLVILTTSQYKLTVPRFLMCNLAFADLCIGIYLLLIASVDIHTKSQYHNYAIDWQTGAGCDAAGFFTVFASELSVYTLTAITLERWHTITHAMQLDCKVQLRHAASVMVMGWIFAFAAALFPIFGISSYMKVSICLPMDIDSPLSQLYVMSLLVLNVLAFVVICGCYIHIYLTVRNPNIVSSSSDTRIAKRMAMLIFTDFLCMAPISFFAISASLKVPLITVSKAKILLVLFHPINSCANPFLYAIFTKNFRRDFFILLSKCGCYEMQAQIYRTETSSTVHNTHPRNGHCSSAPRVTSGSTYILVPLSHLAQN
# Test: EC50 of cyclic AMP production in CHO FSHR cells + EC20 FSH (Assay A)
# Assay type: cell-based
# Conditions: CHO FSHR cells + EC20 FSH, cAMP HTRF; read-out: Assay A: EC50 of cyclic AMP production
# Description: EC50 of Cyclic AMP Production in CHO FSHR Cells+EC20 FSH (Assay A)
# 2500 Cho-FSHR-LUC-1-1-43 cells were plated per well in 5 μl of phenol red free DMEM/F12+1% FBS. Cells were plated in 384 well, solid white low volume plates (Greiner 784075) by Multidrop. Cells were assayed by adding 100 μl of 2×EC20 FSH/IBMX in DMEM/F12+0.1% BSA) by Multidrop to 2 μl of test compound stamped in 384 well plates (compounds are diluted 1:50). The final FSH concentration was […], and the final IBMX concentration was 200 μM. The compound plate map was as follows: Column 1: 2 μl of DMSO; Column 2: 2 μl of DMSO; Columns 3-12 and 13-24: 2 μl of test compound, diluted 1:4 in 100% DMSO, or 2 μl of FSH, diluted 1:4 in DMEM/F12+0.1% BSA. The starting concentration for FSH was 50 nM (final concentration was 0.5 nM). Furthermore, Column 23 contained 2 μl of EC100 FSH reference (100×) (diluted in DMEM/F12+0.1% BSA) at a final concentration of 0.5 nM, and Column 24 contained 2 μl of 1 mM AS707664/2 reference compound 2. 5 μl of compound+EC20 FSH mixture were transferred to cell plates (1:2 dilution into 5 μl of cell media) The plates were incubated at 37° C. for 1 h. 10 μl of mixed HTRF (CisBio #62AM4PEC) reagents were added per well and incubated at room temperature for 1 h. The plates were read on Envision using the cAMP HTRF—low volume 384 well protocol. The readout was the calculated fluorescence ratio (665 nm/620 nm). Values given in percent (%) indicate the percental effect (response) at a certain concentration of agonist relative to the maximum response of the FSH standard.
row,SMILES,EC50 [nM]
1,"COc1cc2c(cc1-c1cnc(C)s1)-c1c(c(C(=O)N(C)C(C)(C)C)nn1-c1ccsc1)CO2 [Compound 73, 7-Methoxy-8-(2-methyl-thiazol-5-yl)-1-thiophen-3-yl-1,4-dihydro-chromeno[4,3-c]pyrazole-3-carboxylic acid tert-butyl-methyl-amide]",< 100
2,"COc1cc2c(cc1C1=CCCO1)-c1c(c(C(=O)N(C)C(C)(C)C)nn1-c1ccsc1)CO2 [Compound 74, 8-(4,5-Dihydro-furan-2-yl)-7-methoxy-1-thiophen-3-yl-1,4-dihydro-chromeno[4,3-c]pyrazole-3-carboxylic acid tert-butyl-methyl-amide]",< 100
3,COc1cc2c(cc1-c1ccsc1C)-c1c(c(C(=O)N(C)C(C)(C)C)nn1-c1ccsc1)CO2 [Compound 75],< 100
4,"COc1cc2c(cc1-c1c(C)cnn1C)-c1c(c(C(=O)N(C)C(C)(C)C)nn1-c1ccsc1)CO2 [Compound 76, 8-(2,4-Dimethyl-2H-pyrazol-3-yl)-7-methoxy-1-thiophen-3-yl-1,4-dihydro-chromeno[4,3-c]pyrazole-3-carboxylic acid tert-butyl-methyl-amide]",< 100
5,"COc1cc2c(cc1CC(C)C)-c1c(c(C(=O)N3CCOCC3(C)C)nn1-c1ccsc1)CO2 [Compound 77, (3,3-Dimethyl-morpholin-4-yl)-(8-isobutyl-7-methoxy-1-thiophen-3-yl-1,4-dihydro-chromeno[4,3-c]pyrazol-3-yl)-methanone]",< 100
6,[2H]C([2H])([2H])N(CCN1CCOC1=O)C(=O)c1nn(-c2ccsc2)c2c1COc1cc(OC)c(-c3cnn(C([2H])([2H])[2H])c3)cc1-2 [Compound 78],< 100
7,"COc1cc2c(cc1-c1cn[nH]c1)-c1c(c(C(=O)N3CCOCC3(C)C)nn1-c1ccsc1)CO2 [Compound 80, (3,3-Dimethyl-morpholin-4-yl)-[7-methoxy-8-(1H-pyrazol-4-yl)-1-thiophen-3-yl-1,4-dihydro-chromeno[4,3-c]pyrazol-3-yl]-methanone]",< 100
8,"COc1cc2c(cc1-c1cscn1)-c1c(c(C(=O)N(C)C(C)(C)C)nn1-c1ccsc1)CO2 [Compound 81, 7-Methoxy-8-thiazol-4-yl-1-thiophen-3-yl-1,4-dihydro-chromeno[4,3-c]pyrazole-3-carboxylic acid tert-butyl-methyl-amide]",< 100
9,[2H]C([2H])([2H])N(CCCN(C(=O)c1nn(-c2ccsc2)c2c1COc1cc(OC)c(CC(C)C)cc1-2)C([2H])([2H])[2H])C(C)=O [Compound 84],> 5000
10,[2H]C([2H])([2H])N(CCN1CCOC1=O)C(=O)c1nn(-c2ccsc2)c2c1COc1cc(OC)c(-c3cn[nH]c3)cc1-2 [Compound 85],< 100
11,"COc1cc2c(cc1C#N)-c1c(c(C(=O)N3CCOCC3(C)C)nn1-c1ccsc1)CO2 [Compound 86, 3-(3,3-Dimethyl-morpholine-4-carbonyl)-7-methoxy-1-thiophen-3-yl-1,4-dihydro-chromeno[4,3-c]pyrazole-8-carbonitrile]",< 100
12,[2H]C([2H])([2H])N(CCNC(C)=O)C(=O)c1nn(-c2ccsc2)c2c1COc1cc(OC)c(C=C(C)C)cc1-2 [Compound 87],100 to 1000
13,"COc1cc2c(cc1-c1sccc1C)-c1c(c(C(=O)N(C)C(C)(C)C)nn1-c1ccsc1)CO2 [Compound 88, 7-Methoxy-8-(3-methyl-thiophen-2-yl)-1-thiophen-3-yl-1,4-dihydro-chromeno[4,3-c]pyrazole-3-carboxylic acid tert-butyl-methyl-amide]",< 100
14,"COc1cc2c(cc1C=C(C)C)-c1c(c(C(=O)N(C)C(C)(C)C)nn1-c1nccs1)CO2 [Compound 89, 7-Methoxy-8-(2-methyl-propenyl)-1-thiazol-2-yl-1,4-dihydro-chromeno[4,3-c]pyrazole-3-carboxylic Acid tert-butyl-methyl-amide]",< 100
15,"COc1cc2c(cc1C=C(C)C)-c1c(c(C(=O)N(C)C(C)(C)C)nn1-c1cccs1)CO2 [Compound 90, 7-Methoxy-8-(2-methyl-propenyl)-1-thiophen-2-yl-1,4-dihydro-chromeno[4,3-c]pyrazole-3-carboxylic Acid tert-butyl-methyl-amide]",< 100
16,"COc1cc2c(cc1-c1cnc(C)n1C)-c1c(c(C(=O)N(C)C(C)(C)C)nn1-c1ccsc1)CO2 [Compound 92, 8-(2,3-Dimethyl-3H-imidazol-4-yl)-7-methoxy-1-thiophen-3-yl-1,4-dihydro-chromeno[4,3-c]pyrazole-3-carboxylic acid tert-butyl-methyl-amide]",< 100
17,"COc1cc2c(cc1-c1ccn(C)n1)-c1c(c(C(=O)NC3(C)COC3)nn1-c1ccsc1)CO2 [Compound 100, 7-Methoxy-8-(1-methyl-1H-pyrazol-3-yl)-1-thiophen-3-yl-1,4-dihydro-chromeno[4,3-c]pyrazole-3-carboxylic acid (3-methyl-oxetan-3-yl)-amide]",100 to 1000
18,"COc1cc2c(cc1-c1ccn(C)c1)-c1c(c(C(=O)N(C)CC3(C)COC3)nn1-c1ccsc1)CO2 [Compound 101, 7-Methoxy-8-(1-methyl-1H-pyrrol-3-yl)-1-thiophen-3-yl-1,4-dihydro-chromeno[4,3-c]pyrazole-3-carboxylic acid methyl-(3-methyl-oxetan-3-ylmethyl)-amide]",< 100
19,"COc1cc2c(cc1-c1ccn(C)n1)-c1c(c(C(=O)N(C)CC3(C)COC3)nn1-c1ccsc1)CO2 [Compound 102, 7-Methoxy-8-(1-methyl-1H-pyrazol-3-yl)-1-thiophen-3-yl-1,4-dihydro-chromeno[4,3-c]pyrazole-3-carboxylic acid methyl-(3-methyl-oxetan-3-ylmethyl)-amide]",100 to 1000
20,"COc1cc2c(cc1-c1ccn(C)c1)-c1c(c(C(=O)N(C)C3COC3)nn1-c1ccsc1)CO2 [Compound 103, 7-Methoxy-8-(1-methyl-1H-pyrrol-3-yl)-1-thiophen-3-yl-1,4-dihydro-chromeno[4,3-c]pyrazole-3-carboxylic acid methyl-oxetan-3-yl-amide]",100 to 1000
21,"COc1cc2c(cc1-c1ccn(C)n1)-c1c(c(C(=O)N(C)C3COC3)nn1-c1ccsc1)CO2 [Compound 104, 7-Methoxy-8-(1-methyl-1H-pyrazol-3-yl)-1-thiophen-3-yl-1,4-dihydro-chromeno[4,3-c]pyrazole-3-carboxylic acid methyl-oxetan-3-yl-amide]",1000 to 5000
22,"COc1cc2c(cc1S(=O)(=O)C1CC1)-c1c(c(C(=O)N3CCOCC3(C)C)nn1-c1ccsc1)CO2 [Compound 106, (8-Cyclopropanesulfonyl-7-methoxy-1-thiophen-3-yl-1,4-dihydro-chromeno[4,3-c]pyrazol-3-yl)-(3,3-dimethyl-morpholin-4-yl)-methanone]",100 to 1000
23,[2H]C([2H])([2H])NC(=O)[C@H]1CCC[C@@H](N(C(=O)c2nn(-c3ccsc3)c3c2COc2cc(OC)c(C=C(C)C)cc2-3)C([2H])([2H])[2H])C1 [Compound 107],> 5000
24,"COc1cc2c(cc1-c1ccnn1C)-c1c(c(C(=O)NC3(C)COC3)nn1-c1ccsc1)CO2 [Compound 109, 7-Methoxy-8-(2-methyl-2H-pyrazol-3-yl)-1-thiophen-3-yl-1,4-dihydro-chromeno[4,3-c]pyrazole-3-carboxylic acid (3-methyl-oxetan-3-yl)-amide]",100 to 1000
25,"COc1cc2c(cc1-c1ccnn1C)-c1c(c(C(=O)N(C)CC3(C)COC3)nn1-c1ccsc1)CO2 [Compound 110, 7-Methoxy-8-(2-methyl-2H-pyrazol-3-yl)-1-thiophen-3-yl-1,4-dihydro-chromeno[4,3-c]pyrazole-3-carboxylic acid methyl-(3-methyl-oxetan-3-ylmethyl)-amide]",< 100
